This is an account of results in ChEMBL document CHEMBL5344472, “Discovery of Alternative Binding Poses through Fragment-Based Identification of DHODH Inhibitors” (ACS Med Chem Lett, 2024).

In one series the target is P-gp (ABCB1) (Homo sapiens, UniProt P08183). Put plainly: Substrate activity at P-gp (unknown origin) assessed as efflux ratio. As to conditions: not told. The class given is ADME.
Series [1] has as its target Dihydroorotate dehydrogenase (quinone), mitochondrial (Homo sapiens, UniProt Q02127). Description: Inhibition of human DHODH in MOLM-13 AML cells. It is filed as cell-based.
Series [2] is described as follows: Intrinsic clearance in human liver microsomes. It is filed as ADME, Microsome. As to conditions: read-out: CLH. On the technique in general: Liver microsomes are vesicles of endoplasmic reticulum, rich in cytochrome P450 enzymes.
Series [3] in a line: Permeability of compound in MDCK cells. The class given is ADME, cell-based, Canis lupus familiaris. To be noted: dog, read-out: permeability.
The subject of another series is MOLM-13. Put plainly: Antiproliferative activity in human MOLM-13 AML cells assessed as reduction in cell viability incubated for 72 hrs by CellTiter-Glo assay. To be noted: MOLM-13, 72 h.
Series [4] is described as follows: Metabolic stability in mouse liver microsome assessed as half life. It is filed as ADME. To be noted: liver microsomes.
Series [5] is described as follows: Metabolic stability in human liver microsome assessed as half life. It is filed as ADME. To be noted: liver microsomes.
The nature of series [6]: Microsomal stability in human assessed as half-life. It is filed as ADME, Microsome. To be noted: microsomes.
A short description of series [7]: Microsomal stability in mouse assessed as half-life. The class given is ADME, Microsome. To be noted: microsomes.
The nature of series [8]: Plasma protein binding in human assessed as free fraction. The class given is ADME, cell-free. To be noted: read-out: PPB.
A short description of series [9]: Clearance in iv dosed mouse assessed as hepatic blood flow. It is filed as ADME, organism-based. As to conditions: in vivo.
Series [10] is described as follows: Half-life in C57 mouse at 10 mg/kg, po or 2 mg/kg, iv. The class given is ADME, organism-based. As to conditions: in vivo.
Series [11] can be described thus: Volume of distribution at steady state in C57 mouse at 10 mg/kg, po or 2 mg/kg, iv. The class given is ADME, organism-based. To be noted: in vivo.
The nature of series [12]: Oral bioavailability in C57 mouse at 10 mg/kg. It is filed as ADME, organism-based. To be noted: in vivo.
Series [13] can be described thus: Plasma protein binding in mouse assessed as free fraction. It is filed as ADME, cell-free. To be noted: read-out: PPB.

P-gp (ABCB1), sequence (P08183 whole entry): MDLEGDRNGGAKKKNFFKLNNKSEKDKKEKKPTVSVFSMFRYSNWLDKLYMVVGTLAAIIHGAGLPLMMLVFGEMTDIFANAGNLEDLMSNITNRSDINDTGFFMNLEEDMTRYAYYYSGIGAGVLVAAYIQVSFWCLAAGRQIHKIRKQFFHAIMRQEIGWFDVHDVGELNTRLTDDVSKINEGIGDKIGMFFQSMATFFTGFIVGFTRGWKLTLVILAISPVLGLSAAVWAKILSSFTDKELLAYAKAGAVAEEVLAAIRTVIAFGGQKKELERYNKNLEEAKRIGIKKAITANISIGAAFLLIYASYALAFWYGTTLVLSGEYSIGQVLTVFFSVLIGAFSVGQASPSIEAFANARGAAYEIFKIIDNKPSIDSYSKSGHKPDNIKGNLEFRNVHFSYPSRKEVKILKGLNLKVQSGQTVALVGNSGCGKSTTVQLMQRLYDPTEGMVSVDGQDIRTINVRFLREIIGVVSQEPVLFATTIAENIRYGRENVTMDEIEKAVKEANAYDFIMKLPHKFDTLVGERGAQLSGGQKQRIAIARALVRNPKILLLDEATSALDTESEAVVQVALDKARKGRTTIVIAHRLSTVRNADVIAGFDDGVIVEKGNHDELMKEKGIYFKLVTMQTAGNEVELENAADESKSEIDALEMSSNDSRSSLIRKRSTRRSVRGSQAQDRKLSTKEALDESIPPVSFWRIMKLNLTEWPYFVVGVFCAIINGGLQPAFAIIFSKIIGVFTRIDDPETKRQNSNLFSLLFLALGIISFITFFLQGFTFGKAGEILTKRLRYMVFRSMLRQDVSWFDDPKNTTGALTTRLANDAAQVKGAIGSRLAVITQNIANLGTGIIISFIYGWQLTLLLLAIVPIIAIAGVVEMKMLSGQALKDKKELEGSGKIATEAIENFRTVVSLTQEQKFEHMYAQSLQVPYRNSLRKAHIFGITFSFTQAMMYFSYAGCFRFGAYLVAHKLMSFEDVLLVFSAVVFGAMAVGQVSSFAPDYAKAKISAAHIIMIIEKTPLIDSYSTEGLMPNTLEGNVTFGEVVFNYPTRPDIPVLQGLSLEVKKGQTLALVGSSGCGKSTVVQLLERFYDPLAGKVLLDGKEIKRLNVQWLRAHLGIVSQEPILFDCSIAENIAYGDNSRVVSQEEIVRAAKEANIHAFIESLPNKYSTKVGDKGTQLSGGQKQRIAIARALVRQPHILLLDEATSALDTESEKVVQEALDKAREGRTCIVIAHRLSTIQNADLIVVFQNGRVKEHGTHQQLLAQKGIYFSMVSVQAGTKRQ
Dihydroorotate dehydrogenase (quinone), mitochondrial, sequence (Q02127 whole entry): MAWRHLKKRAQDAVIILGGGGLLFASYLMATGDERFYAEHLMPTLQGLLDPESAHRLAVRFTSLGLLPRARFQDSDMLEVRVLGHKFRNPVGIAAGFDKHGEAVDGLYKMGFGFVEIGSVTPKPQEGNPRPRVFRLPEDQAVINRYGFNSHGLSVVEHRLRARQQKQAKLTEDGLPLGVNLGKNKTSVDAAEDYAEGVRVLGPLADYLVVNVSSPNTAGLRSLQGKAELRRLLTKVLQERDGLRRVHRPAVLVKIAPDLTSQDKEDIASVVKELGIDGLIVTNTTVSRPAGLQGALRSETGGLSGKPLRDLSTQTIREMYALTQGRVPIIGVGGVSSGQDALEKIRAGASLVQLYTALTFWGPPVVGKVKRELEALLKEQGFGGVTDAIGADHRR

With `CCn1c(CO)nn(-c2nc(O[C@@H](C)C(F)(F)F)c(C(=O)Nc3c(F)cccc3Cl)cc2F)c1=O`, the efflux ratio on P-gp (ABCB1) was above 30. The compound further registered an IC50 in [1] of 0.24 nM.
`CCn1c(CO)nn(-c2nc(O[C@@H](C)C(F)(F)F)c(C(=O)Nc3c(C)cnc(OC)c3Cl)cc2F)c1=O`: the CLint scaled in [2] is below 7.7 mL/min/kg. In addition, on P-gp (ABCB1), the efflux ratio was above 30. Also, the Papp in series [3] came out at 27 ×10⁻⁶ cm/s.
In the case of `C[C@H](Oc1cc(NC(=O)N2CC(CO)C2)c(F)cc1C(=O)Nc1c(F)cccc1Cl)C(F)(F)F`, the IC50 with MOLM-13 was 430 nM. For the same compound, the results for the half-life in series [4] and in [5] were 178 min and 142 min, respectively.
For the compound `CCNC(=O)Nc1cc(O[C@@H](C)C(F)(F)F)c(C(=O)Nc2c(F)cccc2Cl)cc1F`, the half-maximal inhibitory concentration (IC50) with MOLM-13 was determined as 53 nM.
For the compound `CC(=O)Nc1cc(O[C@@H](C)C(F)(F)F)c(C(=O)Nc2c(F)cccc2Cl)cc1F`, the IC50 in the series with MOLM-13 came out at 370 nM.
On to `CCCC(=O)Nc1cc(O[C@@H](C)C(F)(F)F)c(C(=O)Nc2c(F)cccc2Cl)cc1F`, for which the IC50 in the series with MOLM-13 came out at 46 nM. Also, the half-life in series [6] is 31 min; in [7], below 4 min.
For `COCC1CCCN1C(=O)Nc1cc(O[C@@H](C)C(F)(F)F)c(C(=O)Nc2c(F)cccc2Cl)cc1F` (stereo partly specified), in the series with MOLM-13, the IC50 came to 11 nM.
For `CCC(CC)C(=O)Nc1cc(O[C@@H](C)C(F)(F)F)c(C(=O)Nc2c(F)cccc2Cl)cc1F`, the IC50 in the series on MOLM-13 stood at 53 nM.
Turning to `C[C@H](Oc1cc(NC(=O)N(C)C)c(F)cc1C(=O)Nc1c(F)cccc1Cl)C(F)(F)F`, the IC50 in the series on MOLM-13 was found to be 2 nM. Moreover, the values for the half-life in [4] and in series [5] were below 4 min and 22 min, respectively.
On to `CCN(C(=O)Nc1cc(O[C@@H](C)C(F)(F)F)c(C(=O)Nc2c(F)cccc2Cl)cc1F)C1CC1`, for which the IC50 in the series with MOLM-13 was found to be 1 nM. In addition, the half-life in [4] was found to be 20 min; in [5], 50 min.
Take `C[C@H](Oc1cc(NC(=O)N2CCCC2)c(F)cc1C(=O)Nc1c(F)cccc1Cl)C(F)(F)F`: in the series with MOLM-13, the IC50 was 1.3 nM.
For the compound `CCN(C)C(=O)Nc1cc(O[C@@H](C)C(F)(F)F)c(C(=O)Nc2c(F)cccc2Cl)cc1F`, the IC50 in the series with MOLM-13 was determined as 0.82 nM. Besides, the half-life in [4] was below 4 min; in [5], 21 min.
The like results for `CCN(CC)C(=O)Nc1cc(O[C@@H](C)C(F)(F)F)c(C(=O)Nc2c(F)cccc2Cl)cc1F` were, in that order, 0.63 nM, 12 min and 26 min.
Turning to `CC/C(=C\CO)C(=O)Nc1cc(O[C@@H](C)C(F)(F)F)c(C(=O)Nc2c(F)cccc2Cl)cc1F`, the IC50 in the series with MOLM-13 was 64 nM.
On to `C[C@H](Oc1cc(NC(=O)C2CC2)c(F)cc1C(=O)Nc1c(F)cccc1Cl)C(F)(F)F`, for which the IC50 in the series with MOLM-13 was 55 nM.
On the same count and under the same terms, the result for `CCC(CCO)C(=O)Nc1cc(O[C@@H](C)C(F)(F)F)c(C(=O)Nc2c(F)cccc2Cl)cc1F` (stereo partly specified) reads 206 nM; that for `C[C@H](Oc1cc(NC(=O)N2CCC(F)(F)C2)c(F)cc1C(=O)Nc1c(F)cccc1Cl)C(F)(F)F`, 4.3 nM; that for `CCC(=O)Nc1cc(O[C@@H](C)C(F)(F)F)c(C(=O)Nc2c(F)cccc2Cl)cc1F`, 35 nM.
For `CCN(CC)C(=O)N(C)c1cc(O[C@@H](C)C(F)(F)F)c(C(=O)Nc2c(F)cccc2Cl)cc1F`, the IC50 in the series with MOLM-13 turned out to be 25 nM. The half-life in series [4] and in [5] was below 4 min throughout.
Consider `C[C@H](Oc1cc(NC(=O)N2CCCC2CO)c(F)cc1C(=O)Nc1c(F)cccc1Cl)C(F)(F)F` (mixture of isomers), for which, in the series on MOLM-13, the IC50 was determined as 1.5 nM. Further, the half-life in series [4] worked out at 45 min; in series [5], 56 min.
For the compound `C[C@H](Oc1cc(NC(=O)N2CCC2CO)c(F)cc1C(=O)Nc1c(F)cccc1Cl)C(F)(F)F` (mixture of isomers), the IC50 with MOLM-13 was 1.6 nM. In addition, the half-life in [4] came to 15 min; in series [5] it was 28 min.
For `C[C@H](Oc1cc(NC(=O)N2C(=O)CCC2CO)c(F)cc1C(=O)Nc1c(F)cccc1Cl)C(F)(F)F` (mixture of isomers), the fraction unbound in series [8] was 0.012; in [13] it was 0.007. The QH in series [9] is listed as ~ 20%. Moreover, the half-life is 180 min in [10], 106 min in [4] and 62 min in series [5]. The same compound gave a Vdss in series [11] of 3.6 L/kg. For the same compound, the IC50 in the series with MOLM-13 was determined as 0.92 nM. In addition, the bioavailability in series [12] is above 100%.

The efflux ratio is the permeability from basolateral to apical divided by that in the opposite direction, in the common usage. A word on the IC50: it is the point on the concentration scale where inhibition reaches its midpoint. The half-life is the time needed for the level to fall by half in the phase considered. As a reminder, the bioavailability is the share of a dose that reaches the circulation, judged against a reference dose that is usually intravenous. A higher bioavailability goes with much systemic uptake.
